Test results from patent US20260138981A1, “DIHYDROFOLATE REDUCTASE INHIBITORS FOR ANTI-BIOTIC RESISTANT INFECTIONS” (THE TRUSTEES OF PRINCETON UNIVERSITY, priority 2022, published 2026).

How the values were obtained:
P. aeruginosa PA14 = assay: Colony forming units (CFU) counting after 4-hour treatment; format: cell-based; settings: rich media, PA14, 2×MIC, CFU/mL
Description: Data points represent 3 biological replicates with 3 technical replicates. Mean±SD are shown.
P. aeruginosa PA14 overnight cultures were diluted 1:100 and grown to exponential phase (OD600=0.4-0.6). Cultures were diluted 1:10 and treated with antibiotic. At each time point, 150 μL of culture was removed, serial diluted 1:10 six times, and plated onto LB Agar plates. Plates were grown overnight at 37° C. after which visible colonies were counted. CFU/mL was reported from dilutions in which ˜10-100 single colonies were visible.

[1] = test system: P. aeruginosa PA01 and ATTC 27853, 5 ESKAPE pathogens; assay: Growth inhibition of bacterial panel (summary statement); settings: PA01, ATTC 27853 and all 5 ESKAPE pathogens tested
Description: Overnight cultures were diluted 1:150 in LB Broth and added to a 96-well plate. Antibiotics were serially diluted 1:2 and added to columns of the 96-well plate and grown at 37° C. with continuous shaking. Cell growth was measured by optical density (OD600).
4-8 bacterial colonies of strains of interest were vortexed in saline and adjusted to an OD600 of 0.2. Strains were diluted 1:200 into CAMHB media into 96-well plates. Antibiotics were serially diluted 1:3 in DMSO, and 1 μL of each dilution was added to bacteria. The plates were incubated for 18-20 hours at 37° C. before observation.

Nc1nc(N)c2c(ccc3c2ccn3Cc2ccnc(F)c2)n1 [fluorofolin]
type of antibacterial activity (P. aeruginosa PA14): bacteriostatic
concentration inhibiting growth [1]: less than 50 μg/mL
